Laboratory results from article PMC4423729 (Neuropharmacology, 2010).

What was measured:
rtPA = rtPA (Homo sapiens, UniProt P00750); assay: Plasminogen activator activity; assay type: biochemical; settings: Glu-plasminogen 100 nM, Spectrazyme PL 500 μM, PBS, 37°C, A405, 3 experiments
BBB permeability [1] = assay: BBB permeability post ischemia; assay type: in vivo, rat; settings: Evans blue, 12 animals/group
isolated aortic rings = assay: tPA induced vasodilation: phenylephrine contraction of isolated aortic rings; settings: rtPA 1 nM, peptide 100 nM; EC50 of phenylephrine contraction; 3 experiments
[2] = for solubility in an aqueous environment: qualitative
BBB permeability [3] = assay: BBB permeability by extravasation of radiolabeled fibrinogen in rats; assay type: in vivo, rat; settings: PAI-1 or peptide 1 mg/kg IV together with rtPA 1 mg/kg, 6 animals/group
Sprague-Dawley rats = settings: rat, in vivo

rtPA, sequence (P00750 36-562): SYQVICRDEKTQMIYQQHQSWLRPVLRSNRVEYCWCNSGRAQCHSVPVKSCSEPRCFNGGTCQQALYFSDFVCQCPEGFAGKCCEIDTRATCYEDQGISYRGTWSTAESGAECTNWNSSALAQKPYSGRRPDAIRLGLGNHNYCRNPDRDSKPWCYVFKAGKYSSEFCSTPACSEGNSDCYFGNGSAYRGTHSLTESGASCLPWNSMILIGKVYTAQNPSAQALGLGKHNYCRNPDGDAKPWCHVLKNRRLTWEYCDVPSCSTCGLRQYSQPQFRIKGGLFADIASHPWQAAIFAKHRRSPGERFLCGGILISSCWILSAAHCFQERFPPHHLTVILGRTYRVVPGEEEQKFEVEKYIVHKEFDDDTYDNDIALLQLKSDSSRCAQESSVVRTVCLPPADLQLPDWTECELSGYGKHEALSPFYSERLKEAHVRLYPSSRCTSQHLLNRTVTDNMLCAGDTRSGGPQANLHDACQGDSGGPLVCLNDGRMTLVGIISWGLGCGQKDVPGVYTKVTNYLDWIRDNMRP

Row | Compound | effect on the catalytic activity of rtPA (plasminogen activation) (rtPA) | inhibition of the late effect of rtPA on BBB permeability (BBB permeability [1]; peptide together with rtPA three hours after the filament was withdrawn) | inhibition of rtPA-induced vasodilation (isolated aortic rings) | solubility in an aqueous environment [2] | effect on the catalytic activity of rtPA (plasminogen activation) (rtPA; listed as 18-aa- Phe^383) | inhibition of rtPA-induced permeation of radiolabeled fibrinogen (BBB permeability [3]) | maximal solubility ([2]; lyophilized peptide resuspended in 50% ethanol at 37°C, vortexed) | BBB permeability post tMCAO (BBB permeability [1]; rtPA three hours after the filament was withdrawn) | effect of rtPA on mortality (Sprague-Dawley rats) | effect of rtPA on neurological severity score (NSS) (Sprague-Dawley rats) | mortality (Sprague-Dawley rats)
1 | CC[C@H](C)[C@H](NC(=O)[C@H](CCC(=O)O)NC(=O)[C@H](CCC(=O)O)NC(=O)[C@@H]1CCCN1C(=O)[C@H](C)NC(=O)[C@H](CCSC)NC(=O)[C@H](CCCNC(=N)N)NC(C)=O)C(=O)N[C@H](C(=O)N[C@@H](CCSC)C(=O)N[C@@H](CC(=O)O)C(=O)N[C@@H](CCCNC(=N)N)C(=O)N1CCC[C@H]1C(=O)N[C@@H](Cc1ccccc1)C(=O)N[C@@H](CC(C)C)C(=O)N[C@@H](Cc1ccc(O)cc1)C(=O)N[C@H](C(=O)N[C@H](C(=O)N[C@@H](CCCNC(=N)N)C(N)=O)C(C)C)C(C)C)[C@@H](C)CC [18-aa-Tyr^383] | without inhibiting the catalytic activity of rtPA | 96.7% | inhibited rtPA-induced vasodilation | more soluble in an aqueous environment than the original sequence |  |  |  |  |  |  | 
2 | CC[C@H](C)[C@H](NC(=O)[C@H](CCC(=O)O)NC(=O)[C@H](CCC(=O)O)NC(=O)[C@@H]1CCCN1C(=O)[C@H](C)NC(=O)[C@H](CCSC)NC(=O)[C@H](CCCNC(=N)N)NC(C)=O)C(=O)N[C@H](C(=O)N[C@@H](CCSC)C(=O)N[C@@H](CC(=O)O)C(=O)N[C@@H](CCCNC(=N)N)C(=O)N1CCC[C@H]1C(=O)N[C@@H](Cc1ccccc1)C(=O)N[C@@H](CC(C)C)C(=O)N[C@@H](Cc1ccccc1)C(=O)N[C@H](C(=O)N[C@H](C(=O)N[C@@H](CCCNC(=N)N)C(N)=O)C(C)C)C(C)C)[C@@H](C)CC [18-aa] | without affecting the catalytic activity of rtPA |  | inhibited vasodilation | relatively insoluble | without inhibiting the catalytic activity of rtPA | inhibited | 200 µg/mL |  |  |  | 
3 | Ac-RMAPEEIIMDR-NH2 [11-aa] | without affecting the catalytic activity of rtPA |  | inhibited vasodilation |  |  |  |  |  |  |  | 
4 | rtPA |  |  |  |  |  |  |  | re-opened the BBB | increased mortality | aggravated the neurological disability | 28.6±4.2%
